Assay: Drug delivery effect of the RED iontophoresis device through excised hairless mouse back skin (HPLC/LC-MS of stratum corneum and dermis)
Assay type: in vitro ADME
Details: after 3 hours, FIG. 10
Procedure: FIG. 10 is a graph illustrating drug delivery effects of the iontophoresis device according to an embodiment. In order to confirm the drug delivery effects, the RED battery unit was prepared in the same manner as in preparation of the RED battery unit prepared for the measurement in FIG. 6, except that the number of chamber layers was 15, and a size of the chamber was 1 cm×0.8 cm. Also, 3M clectrically conductible adhesive tape (ECAT), which is conductive fabric, was used as an intermediate unit. The first material containing unit was prepared as follows. 2.5 wt % of 2-phospho I-ascorbic acid trisodium (VCP) (available from Sigma Aldrich, US) and 3 w/v % of Carbopol 940 were dissolved in 1×PBS having pH of 7.4. By titrating with 1 M HCl and 1 M NaOH, a pH of the first material containing unit including vitamin C (VCP) was adjusted to 7. This is a stable pH at which VCP exists in the ionized form. As a thickening agent used in preparation of a dosage form, Carbopol was prepared as a sol while controlling a pH using pH indicator paper (available from GE healthcare, UK). The resultant was sufficiently stirred by using a glass rod so that a material in the first material containing unit was homogenous after each titration process. […]

## O=C1O[C@H]([C@@H](O)CO)C(O)=C1OP(=O)(O)O.[Na+].[Na+].[Na+] [VCP, 2-phospho I-ascorbic acid trisodium]
Control group (Ctrl): device with the same drug concentration, not activated by water, excised haireless mouse back skin
  drug remaining amount in the stratum corneum: more drug remaining amount was found in the stratum corneum
Experimental group (RED single): activated iontophoresis device, 15 chamber layers, 2.5 wt % VCP in Carbopol sol pH 7, excised haireless mouse (Sk-hr 1) back skin
  vitamin C (VCP) delivered to the skin, i.e., dermis: about 40%

Source: US11571567B2, “Iontophoresis device for drug delivery and method for manufacturing the same” (BIOSENSOR LABORATORIES INC., priority 2016, dated 2023)
